In the assay the test system is HBsAg. Nature of the assay: HBsAg assay: inhibition of HBsAg in HepG2.2.15 cells (chemiluminescence immunoassay of supernatant). Format: cell-based, hepatitis B virus. The following applies: HBsAg in supernatant at day 6 after exposure to compound, 0.5% DMSO. An outline of the steps:
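HepG2.2.15 cells treated with serially diluted compounds (0.5% DMSO), medium and compound refreshed after 2–3 days, supernatant harvested at day 6. Secreted HBsAg measured by chemiluminescence immunoassay; EC50 from dose-response curves, with parallel CellTiter-Glo viability at 5,000 cells/well.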

The mark [1] stands for this setting: read-out: sAg EC50, HepG2.2.15 cells.
[2] abbreviates: Hepatitis B virus, HepG2.2.15, 144 h, read-out: sAg EC50, HepG2.2.15 cells.

A word on the pEC50: it is the negative decadic logarithm of the EC50, by convention in mol/L.

pEC50: −log10 of the molar value. Like-named read-outs stand apart in the source and are kept apart here.

In the case of `COC1CN(c2cc([C@@H]3C[C@H]3c3cnc(-c4ncccn4)nc3)cc(F)c2F)C1` (single isomer, unassigned) [Example 122, trans-5-(2-(3,4-difluoro-5-(3-methoxyazetidin-1-yl)phenyl)cyclopropyl)-2,2′-bipyrimidine], the pEC50 under setting [1] was 7.21.
The same measure, in the same setting: as for `COc1cc(C2CC2c2ccc(-c3ncccn3)nn2)ccc1F` (single isomer, unassigned) [Example 192, trans-3-(2-(4-Fluoro-3-methoxyphenyl)cyclopropyl)-6-(pyrimidin-2-yl)pyridazine], the figure is 4.31; as for `COCCCn1ncc2c(C3CC3c3cnc(-c4ncccn4)nc3)cc(F)c(F)c21` (single isomer, unassigned) [Example 265, trans-4-(2-([2,2′-Bipyrimidin]-5-yl)cyclopropyl)-6,7-difluoro-1-(3-methoxypropyl)-1H-indazole], 7.21; as for `COCCCOc1cc(F)c(Cl)cc1C1CC1c1cnc(-c2ncccn2)nc1` (single isomer, unassigned) [Example 155, trans-5-(2-(5-Chloro-4-fluoro-2-(3-methoxypropoxy)phenyl)cyclopropyl)-2,2′-bipyrimidine], 5.52.
Still for that read-out and setting: under `CO[C@H]1CCN(c2cc(C3CC3c3cnc(-c4ncccn4)nc3)cc(F)c2F)C1` (single isomer, unassigned) [Example 103] stands 8.10; under `COc1cc(C2CC2c2cnc(-c3ncccn3)nc2)cc(Cl)c1F` (single isomer, unassigned) [Example 148, trans-5-(2-(3-Chloro-4-fluoro-5-methoxyphenyl)cyclopropyl)-2,2′-bipyrimidine], 6.00; under `Cc1cc(C2CC2c2cnc(-c3ncccn3)nc2)cc(OCC2CC2)c1Cl` (single isomer, unassigned) [Example 50, trans-5-((2-(4-Chloro-3-(cyclopropylmethoxy)-5-methylphenyl)cyclopropyl)-2,2′-bipyrimidine], 5.70.
Still for that read-out and setting: under `Fc1cc(C2CC2c2cnc(-c3ncccn3)nc2)cc(O[C@@H]2CCOC2)c1F` (single isomer, unassigned) [Example 247] stands 7.12.
`Fc1cc([C@@H]2C[C@H]2c2cnc(-c3ncccn3)nc2)cc(F)c1OCCCN1CCOCC1` (relative stereo) [Example 241, trans-4-(3-(4-(2-([2,2′-Bipyrimidin]-5-yl)cyclopropyl)-2,6-difluorophenoxy)propyl)morpholine]: under setting [2], the pEC50 was 6.08.
`COc1cc(C2CC2c2cnc(-c3ncccn3)nc2-c2ccc3nc(C)sc3c2)ccc1F` (single isomer, unassigned) [Example 140, trans-6-(5-(2-(4-Fluoro-3-methoxyphenyl)cyclopropyl)-[2,2′-bipyrimidin]-4-yl)-2-methylbenzo[d]thiazole]: the pEC50 under setting [1] is 4.43.
The same measure, in the same setting: under `Fc1ccc(C2CC2c2cnc(-c3ncccn3)nc2)cc1N1CCCC1` (single isomer, unassigned) [Example 20, trans-5-(2-(4-Fluoro-3-(pyrrolidin-1-yl)phenyl)cyclopropyl)-2,2′-bipyrimidine] stands 7.64.
The same measure, in the same setting: under `COc1cc(C2CC2c2cnc(-c3ncccn3)nc2)c(-c2ccccc2)cc1Cl` (single isomer, unassigned) [Example 158, trans-5-(2-(5-Chloro-4-methoxy-[1,1′-biphenyl]-2-yl)cyclopropyl)-2,2′-bipyrimidine] stands 5.52.
As to `COc1cc(C2CC2c2cnc(-c3ncccn3)nc2)c(F)cc1Cl` (single isomer, unassigned) [Example 86, trans-5-(2-(4-Chloro-2-fluoro-5-methoxyphenyl)cyclopropyl)-2,2′-bipyrimidine], the negative-log EC50 (pEC50) under setting [2] was 6.89.
In the case of `COc1cc(C2CC2c2cnc(-c3ncccn3)nc2-c2ccccc2)ccc1F` (single isomer, unassigned) [Example 143, trans-5-(2-(4-Fluoro-3-methoxyphenyl)cyclopropyl)-4-phenyl-2,2′-bipyrimidine], the pEC50 under setting [1] was 6.92.
The same measure, in the same setting: under `COc1cc(C2CC2c2cnc(-c3ncccn3)nc2)cc(F)c1Cl` (single isomer, unassigned) [Example 46, trans-5-(2-(4-Chloro-3-fluoro-5-methoxyphenyl)cyclopropyl)-2,2′-bipyrimidine] stands 7.46.
Turning to `COc1ccc([C@@H]2C[C@H]2c2cnc(-c3ncccn3)nc2)c2cccnc12` (relative stereo) [Example 173, trans-5-(2-([2,2′-Bipyrimidin]-5-yl)cyclopropyl)-8-methoxyquinoline], the pEC50 under setting [2] is 6.27.
As to `COc1ccc(C2CC2c2cnc(-c3ncccn3)nc2)cc1OC` (single isomer, unassigned) [Example 31, trans-5-(2-(3,4-Dimethoxyphenyl)cyclopropyl)-2,2′-bipyrimidine], the pEC50 under setting [2] was 6.48.
The same measure, in the same setting: as for `COc1ccc(C2CC2c2cnc(-c3ncccn3)nc2)c(F)c1` (single isomer, unassigned) [Example 3, trans-5-(2-(2-Fluoro-4-methoxyphenyl)cyclopropyl)-2,2′-bipyrimidine], the figure is 6.72.
With `COc1cc(C2CC2c2cnc(-c3ncccn3)nc2)c(C)cc1Cl` (single isomer, unassigned) [Example 52, trans-5-(2-(4-Chloro-5-methoxy-2-methylphenyl)cyclopropyl)-2,2′-bipyrimidine], the pEC50 under setting [1] is 6.00.
Same read-out and setting: under `Fc1ccc(C2CC2c2cnc(-c3ncccn3)nc2)cc1F` (single isomer, unassigned) [Example 15, trans-5-(2-(3,4-Difluorophenyl)cyclopropyl)-2,2′-bipyrimidine] stands 7.12; under `Fc1ccc(C2CC2c2cnc(-c3ncccn3)nc2)cc1OC(F)F` (single isomer, unassigned) [Example 186, trans-5-(2-(3-(Difluoromethoxy)-4-fluorophenyl)cyclopropyl)-2,2′-bipyrimidine], 5.80.
In the case of `CN(c1cc([C@@H]2C[C@H]2c2cnc(-c3ncccn3)nc2)cc(F)c1F)C1COC1` (relative stereo) [Example 233, trans-N-(5-(2-([2,2′-Bipyrimidin]-5-yl)cyclopropyl)-2,3-difluorophenyl)-N-methyloxetan-3-amine], under setting [2], the pEC50 is 7.08.
Regarding `COc1c(F)ccc(C2CC2c2cnc(-c3ncccn3)nc2)c1F` (single isomer, unassigned) [Example 190, trans-5-(2-(2,4-Difluoro-3-methoxyphenyl)cyclopropyl)-2,2′-bipyrimidine], the pEC50 under setting [1] is 5.89.
On the same count and under the same terms, under `COCCCn1ncc2c(C3CC3c3cnc(-c4ncccn4)nc3)cc(F)c(F)c21` (single isomer, unassigned) [Example 266, trans-4-(2-([2,2′-Bipyrimidin]-5-yl)cyclopropyl)-6,7-difluoro-1-(3-methoxypropyl)-1H-indazole] stands 8.70; under `Clc1ccc(C2CC2c2cnc(-c3ncccn3)nc2)cc1N1CCCC1` (single isomer, unassigned) [Example 200, trans-5-(2-(4-Chloro-3-(pyrrolidin-1-yl)phenyl)cyclopropyl)-2,2′-bipyrimidine], 7.24.
On to `COCCCn1cc2c(F)cc([C@@H]3C[C@H]3c3cnc(-c4ncccn4)nc3)cc2n1` (relative stereo) [Example 267, trans-6-(2-([2,2′-Bipyrimidin]-5-yl)cyclopropyl)-4-fluoro-2-(3-methoxypropyl)-2H-indazole], for which the pEC50 under setting [2] was 7.89.
As for `Fc1c(Cl)cc(C2CC2c2cnc(-c3ncccn3)nc2)cc1N1CCCC1` (single isomer, unassigned) [Example 108, trans-5-(2-(3-Chloro-4-fluoro-5-(pyrrolidin-1-yl)phenyl)cyclopropyl)-2,2′-bipyrimidine], the pEC50 under setting [1] is 7.11.
The same measure, in the same setting: under `COc1cc(C2CC2c2cnc(-c3ncccn3)nc2)cc(C)c1Cl` (single isomer, unassigned) [Example 57, trans-5-(2-(4-Chloro-3-methoxy-5-methylphenyl)cyclopropyl)-2,2′-bipyrimidine] stands 7.20.
Take `Cn1cnc(COc2cc([C@@H]3C[C@H]3c3cnc(-c4ncccn4)nc3)cc(F)c2F)n1` (relative stereo) [Example 217, trans-5-(2-(3,4-Difluoro-5-((1-methyl-1H-1,2,4-triazol-3-yl)methoxy)phenyl)cyclopropyl)-2,2′-bipyrimidine]: the negative-log EC50 (pEC50) under setting [2] is 6.70.
For `COc1cc(C2CC2c2cnc(-c3ncccn3)nc2C(C)C)ccc1F` (single isomer, unassigned) [Example 75, trans-5-(2-(4-Fluoro-3-methoxyphenyl)cyclopropyl)-4-isopropyl-2,2′-bipyrimidine], under setting [1], the pEC50 was 5.70.
On the same count and under the same terms, under `COc1ccc(C2CC2c2cnc(-c3ncccn3)nc2)cc1OC` (single isomer, unassigned) [Example 32, trans-5-(2-(3,4-Dimethoxyphenyl)cyclopropyl)-2,2′-bipyrimidine] stands 6.32; under `O[C@H]1CCN(c2cc(C3CC3c3cnc(-c4ncccn4)nc3)cc(F)c2F)C1` (single isomer, unassigned) [Example 106], 7.07.
On to `COCCOc1ccc(C2CC2c2cnc(-c3ncccn3)nc2)cc1F` (single isomer, unassigned) [Example 23, trans-5-(2-(3-Fluoro-4-(2-methoxyethoxy)phenyl)cyclopropyl)-2,2′-bipyrimidine], for which the pEC50 under setting [2] was 7.02.
Consider `COCCOc1ccc(C2CC2c2cnc(-c3ncccn3)nc2)cc1F` (single isomer, unassigned) [Example 24, trans-5-(2-(3-Fluoro-4-(2-methoxyethoxy)phenyl)cyclopropyl)-2,2′-bipyrimidine], for which the negative logarithm of the EC50 (pEC50) under setting [1] is 6.82.
`Cc1nc2c(F)cc([C@@H]3C[C@H]3c3cnc(-c4ncccn4)nc3)cc2n1C(C)C` (relative stereo) [Example 271, trans-6-(2-([2,2′-Bipyrimidin]-5-yl)cyclopropyl)-4-fluoro-1-isopropyl-2-methyl-1H-benzo[d]imidazole]: the pEC50 under setting [2] is 6.60.

These data come from patent US20230083973A1, “SUBSTITUTED CYCLOPROPYL-2,2'-BIP[…], ANALOGUES THEREOF, AND METHODS USING SAME” (priority 2019, published 2023).
